Data taken from PMC4515825, “Molecular mechanisms of the non-coenzyme action of thiamin in brain: biochemical, structural and pathway analysis” (Scientific Reports, 2015).

Columns and labels:
pyridoxal kinase (PdxK) [1] = target: T1, pyridoxal kinase (PdxK) (Homo sapiens, UniProt O00764); test: steady-state enzyme kinetics ([…] nm), Lineweaver-Burk and secondary plots; type: biochemical; design: wild-type human recombinant
T1 sequence (O00764 1-312): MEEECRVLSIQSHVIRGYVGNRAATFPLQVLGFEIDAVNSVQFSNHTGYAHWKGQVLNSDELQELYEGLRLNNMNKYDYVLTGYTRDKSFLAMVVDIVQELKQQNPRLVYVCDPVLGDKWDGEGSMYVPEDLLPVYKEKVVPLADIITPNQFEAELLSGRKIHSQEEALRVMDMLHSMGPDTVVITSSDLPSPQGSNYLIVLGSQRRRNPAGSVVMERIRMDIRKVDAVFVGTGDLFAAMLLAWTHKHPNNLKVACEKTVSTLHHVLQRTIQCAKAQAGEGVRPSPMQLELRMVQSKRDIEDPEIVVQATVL

pyridoxal kinase (PdxK) [2] = target: T1, pyridoxal kinase (PdxK); test: enzyme activity assay; type: biochemical; design: human recombinant

Row | SMILES | Ki (pyridoxal kinase (PdxK) [1]) [µM] | enzyme activity assay (pyridoxal kinase (PdxK) [2])
1 | Cc1ncc(C[n+]2csc(CCO)c2C)c(N)n1 [thiamin] | 2200 | –
2 | CCCCCCCCCCOC(=O)C[n+]1csc(CCO)c1C [DMHT, 3-decyloxycarbonylmethyl-4-methyl-5-(2-hydroxyethyl) thiazolium] | – | Figure 2B shows that both compounds affected PdxK activity, supporting the direct interaction of the enzyme
3 | Cc1ncc(C[n+]2csc(CCOP(=O)([O-])OP(=O)(O)O)c2C)c(N)n1 [thiamin diphosphate] | 3300 | –
